{"source": "patent US8299065B2", "about": "“Antibacterial condensed thiazoles” (Biota Europe Ltd., priority 2007, dated 2012)", "tested_on": "Enterococcus faecalis ATCC 29212", "experiment": "MIC testing against Enterococcus faecalis ATCC 29212", "format": "cell-based", "conditions": "for MIC: ATCC29212, read-out: MICs against Enterococcus faecalis, Activity", "procedure": "Minimum Inhibitory Concentration (MIC) Testing Compounds of this invention were tested for antimicrobial activity by susceptibility testing in liquid or on solid media. MICs for compounds against each strain were determined by the broth microdilution or agar dilution method according to the guidelines of the Clinical Laboratories and Standards Institute, formerly the National Committee for Clinical Laboratory Standards (Clinical Laboratories and Standards Institute. Methods for Dilution Antimicrobial Susceptibility Tests for Bacteria That Grow Aerobically; Approved Standard—Seventh Edition. Document M7-A7. CLSI, Wayne, Pa., 2006; Clinical Laboratories and Standards Institute. Methods for Antimicrobial Susceptibility Testing of Anaerobic Bacteria; Approved Standard—Sixth Edition. Document M11-A6. CLSI, Wayne, Pa., 2004)."}
{"compound": "CCNC(=O)Nc1nc2cc(-c3cnc(N4CCCC(C(=O)OC)C4)nc3)c(F)cc2s1", "note": "(stereo not shown) [Example 45, methyl 1-(5-(2-(3-ethylureido)-6-fluorobenzo[d]thiazol-5-yl)pyrimidin-2-yl)piperidine-3-carboxylate]", "values": [{"measurement": "MIC", "result": "0.25 to 1", "unit": "µg/mL"}]}
{"compound": "CCNC(=O)Nc1nc2cc(-c3cnc(N4CCCC(C(=O)O)C4)nc3)c(F)cc2s1", "note": "(stereo not shown) [Example 46, 1-(5-(2-(3-ethylureido)-6-fluorobenzo[d]thiazol-5-yl)pyrimidin-2-yl)piperidine-3-carboxylic acid]", "values": [{"measurement": "MIC", "result": "0.25 to 1", "unit": "µg/mL"}]}
{"compound": "CCNC(=O)Nc1nc2cc(-c3cnn(C(C)C(=O)OC)c3)c(F)cc2s1", "note": "(stereo not shown) [Example 47, methyl 2-(4-(2-(3-ethylureido)-6-fluorobenzo[d]thiazol-5-yl)-1H-pyrazol-1-yl)propanoate]", "values": [{"measurement": "MIC", "result": "2 to 16", "unit": "µg/mL"}]}
{"compound": "CCNC(=O)Nc1nc2cc(-c3c[nH]c4ncccc34)c(F)cc2s1", "note": "[Example 48, 1-ethyl-3-(6-fluoro-5-(1H-pyrrolo[2,3-b]pyridin-3-yl)benzo[d]thiazol-2-yl)urea]", "values": [{"measurement": "MIC", "result": "0.25 to 1", "unit": "µg/mL"}]}
{"compound": "CCNC(=O)Nc1nc2cc(-c3cc(C)n(CC4CCN(C)C4)c(=O)c3)c(F)cc2s1", "note": "(stereo not shown) [Example 50, 1-ethyl-3-(6-fluoro-5-(6-methyl-1-((1-methylpyrrolidin-3-yl)methyl)-2-oxo-1,2-dihydropyridin-4-yl)benzo[d]thiazol-2-yl)urea]", "values": [{"measurement": "MIC", "result": "2 to 16", "unit": "µg/mL"}]}
{"compound": "CCNC(=O)Nc1nc2cc(-c3cc(C)n(CC4CCCCN4C)c(=O)c3)c(F)cc2s1", "note": "(stereo not shown) [Example 51, 1-ethyl-3-(6-fluoro-5-(6-methyl-1-((1-methylpiperidin-2-yl)methyl)-2-oxo-1,2-dihydropyridin-4-yl)benzo[d]thiazol-2-yl)urea]", "values": [{"measurement": "MIC", "result": "2 to 16", "unit": "µg/mL"}]}
{"compound": "CCNC(=O)Nc1nc2cc(-c3cc(C)n(Cc4cn(C)cn4)c(=O)c3)c(F)cc2s1", "note": "[Example 52, 1-ethyl-3-(6-fluoro-5-(6-methyl-1-((1-methyl-1H-imidazol-4-yl)methyl)-2-oxo-1,2-dihydropyridin-4-yl)benzo[d]thiazol-2-yl)urea]", "values": [{"measurement": "MIC", "result": "0.25 to 1", "unit": "µg/mL"}]}
{"compound": "CCNC(=O)Nc1nc2cc(-c3cc(C)n(CC4CCCN4C(=O)OC(C)(C)C)c(=O)c3)c(F)cc2s1", "note": "(stereo not shown) [Example 53, tert-butyl 2-((4-(2-(3-ethylureido)-6-fluorobenzo[d]thiazol-5-yl)-6-methyl-2-oxopyridin-1(2H)-yl)methyl)pyrrolidine-1-carboxylate]", "values": [{"measurement": "MIC", "result": "2 to 16", "unit": "µg/mL"}]}
{"compound": "CCNC(=O)Nc1nc2cc(-c3cc(C)n(CCCN(C)C)c(=O)c3)c(F)cc2s1", "note": "[Example 54, 1-(5-(1-(3-(dimethylamino)propyl)-6-methyl-2-oxo-1,2-dihydropyridin-4-yl)-6-fluorobenzo[d]thiazol-2-yl)-3-ethylurea]", "values": [{"measurement": "MIC", "result": "2 to 16", "unit": "µg/mL"}]}
{"compound": "CCNC(=O)Nc1nc2cc(-c3ccc(-c4noc(C)n4)nc3)c(F)cc2s1", "note": "[Example 55, 1-ethyl-3-(6-fluoro-5-(6-(5-methyl-1,2,4-oxadiazol-3-yl)pyridin-3-yl)benzo[d]thiazol-2-yl)urea]", "values": [{"measurement": "MIC", "result": "0.25 to 1", "unit": "µg/mL"}]}
{"compound": "CCNC(=O)Nc1nc2cc(-c3cc(OC)ccn3)c(F)cc2s1", "note": "[Example 56, 1-ethyl-3-[6-fluoro-5-(4-methoxy-pyridin-2-yl)-benzothiazol-2-yl]-urea]", "values": [{"measurement": "MIC", "result": "2 to 16", "unit": "µg/mL"}]}
{"compound": "CCNC(=O)Nc1nc2cc(-c3cnc(N4CCN(C)CC4)nc3)c(F)cc2s1", "note": "[Example 57, 1-ethyl-3-(6-fluoro-5-(2-(4-methylpiperazin-1-yl)pyrimidin-5-yl)benzo[d]thiazol-2-yl)urea]", "values": [{"measurement": "MIC", "result": "2 to 16", "unit": "µg/mL"}]}
{"compound": "CCNC(=O)Nc1nc2cc(-c3cncc(OC)c3)c(F)cc2s1", "note": "[Example 58, 1-ethyl-3-(6-fluoro-5-(5-methoxypyridin-3-yl)benzo[d]thiazol-2-yl)urea]", "values": [{"measurement": "MIC", "result": "0.25 to 1", "unit": "µg/mL"}]}
{"compound": "CCNC(=O)Nc1nc2cc(-c3cncc(O)c3)c(F)cc2s1", "note": "[Example 59, 1-ethyl-3-(6-fluoro-5-(5-hydroxypyridin-3-yl)benzo[d]thiazol-2-yl)urea]", "values": [{"measurement": "MIC", "result": "0.25 to 1", "unit": "µg/mL"}]}
{"compound": "CCNC(=O)Nc1nc2cc(-c3ccc(C(N)=NO)nc3)c(F)cc2s1", "note": "[Example 60, 5-(2-(3-ethylureido)-6-fluorobenzo[d]thiazol-5-yl)-N′-hydroxypicolinimidamide]", "values": [{"measurement": "MIC", "result": "0.25 to 1", "unit": "µg/mL"}]}
{"compound": "CCNC(=O)Nc1nc2cc(-c3ccn(C)c(=O)c3)c(F)cc2s1", "note": "[Example 61, 1-ethyl-3-(6-fluoro-5-(1-methyl-2-oxo-1,2-dihydropyridin-4-yl)benzo[d]thiazol-2-yl)urea]", "values": [{"measurement": "MIC", "result": "0.25 to 1", "unit": "µg/mL"}]}
{"compound": "CCNC(=O)Nc1nc2cc(-c3ccn(CCN4CCOCC4)c(=O)c3)c(F)cc2s1", "note": "[Example 62, 1-ethyl-3-(6-fluoro-5-(1-(2-morpholinoethyl)-2-oxo-1,2-dihydropyridin-4-yl)benzo[d]thiazol-2-yl)urea]", "values": [{"measurement": "MIC", "result": "0.25 to 1", "unit": "µg/mL"}]}
{"compound": "CCNC(=O)Nc1nc2cc(-c3ccn(CCN(C)C)c(=O)c3)c(F)cc2s1", "note": "[Example 63, 1-(5-(1-(2-(dimethylamino)ethyl)-2-oxo-1,2-dihydropyridin-4-yl)-6-fluorobenzo[d]thiazol-2-yl)-3-ethylurea]", "values": [{"measurement": "MIC", "result": "2 to 16", "unit": "µg/mL"}]}
{"compound": "CCNC(=O)Nc1nc2cc(-c3ccc(CO)nc3)c(F)cc2s1", "note": "[Example 65, 1-ethyl-3-(6-fluoro-5-(6-(hydroxymethyl)pyridin-3-yl)benzo[d]thiazol-2-yl)urea]", "values": [{"measurement": "MIC", "result": "0.25 to 1", "unit": "µg/mL"}]}
{"compound": "CCNC(=O)Nc1nc2cc(-c3ccc(CN4CCOCC4)nc3)c(F)cc2s1", "note": "[Example 66, 1-ethyl-3-(6-fluoro-5-(6-(morpholinomethyl)pyridin-3-yl)benzo[d]thiazol-2-yl)urea]", "values": [{"measurement": "MIC", "result": "2 to 16", "unit": "µg/mL"}]}
{"compound": "CCNC(=O)Nc1nc2cc(-c3ccn(C4CCNC4)c(=O)c3)c(F)cc2s1", "note": "(stereo not shown) [Example 67, 1-ethyl-3-(6-fluoro-5-(2-oxo-1-(pyrrolidin-3-yl)-1,2-dihydropyridin-4-yl)benzo[d]thiazol-2-yl)urea]", "values": [{"measurement": "MIC", "result": "2 to 16", "unit": "µg/mL"}]}
{"compound": "CCNC(=O)Nc1nc2cc(-c3ccc(CC(=O)NC)nc3)c(F)cc2s1", "note": "[Example 68, 2-{5-[2-(3-ethyl-ureido)-6-fluoro-benzothiazol-5-yl]-pyridin-2-yl}-N-methyl-acetamide]", "values": [{"measurement": "MIC", "result": "2 to 16", "unit": "µg/mL"}]}
{"compound": "CCNC(=O)Nc1nc2cc(-c3cncs3)c(F)cc2s1", "note": "[Example 69, 1-ethyl-3-(6-fluoro-5-(thiazol-5-yl)benzo[d]thiazol-2-yl)urea]", "values": [{"measurement": "MIC", "result": "2 to 16", "unit": "µg/mL"}]}
{"compound": "CCNC(=O)Nc1nc2cc(-c3cnc(S(C)(=O)=O)nc3)c(F)cc2s1", "note": "[Example 70, 1-ethyl-3-(6-fluoro-5-(2-(methylsulfonyl)pyrimidin-5-yl)benzo[d]thiazol-2-yl)urea]", "values": [{"measurement": "MIC", "result": "2 to 16", "unit": "µg/mL"}]}
{"compound": "CCNC(=O)Nc1nc2cc(-c3cccnc3)c(OC)cc2s1", "note": "[Example 71, 1-ethyl-3-(6-methoxy-5-(pyridin-3-yl)benzo[d]thiazol-2-yl)urea]", "values": [{"measurement": "MIC", "result": "0.25 to 1", "unit": "µg/mL"}]}
{"compound": "CCNC(=O)Nc1nc2cc(-c3ccn(C)c(=O)c3)c(OC)cc2s1", "note": "[Example 72, 1-ethyl-3-(6-methoxy-5-(1-methyl-2-oxo-1,2-dihydropyridin-4-yl)benzo[d]thiazol-2-yl)urea]", "values": [{"measurement": "MIC", "result": "0.25 to 1", "unit": "µg/mL"}]}
{"compound": "CCNC(=O)Nc1nc2cc(-c3cccnc3)c(C)cc2s1", "note": "[Example 73, 1-ethyl-3-(6-methyl-5-(pyridin-3-yl)benzo[d]thiazol-2-yl)urea]", "values": [{"measurement": "MIC", "result": "2 to 16", "unit": "µg/mL"}]}
{"compound": "CCNC(=O)Nc1nc2cc(-c3ccn(C)c(=O)c3)c(C)cc2s1", "note": "[Example 74, 1-ethyl-3-(6-methyl-5-(1-methyl-2-oxo-1,2-dihydropyridin-4-yl)benzo[d]thiazol-2-yl)urea]", "values": [{"measurement": "MIC", "result": "0.25 to 1", "unit": "µg/mL"}]}
{"compound": "CCNC(=O)Nc1nc2cc(-c3cccnc3)cnc2s1", "note": "[Example 75, 1-ethyl-3-(6-(pyridin-3-yl)thiazolo[5,4-b]pyridin-2-yl)urea]", "values": [{"measurement": "MIC", "result": "2 to 16", "unit": "µg/mL"}]}
{"compound": "CCNC(=O)Nc1nc2cc(-c3ccc(NC(C)=O)nc3)cnc2s1", "note": "[Example 76, N-(5-(2-(3-ethylureido)thiazolo[5,4-b]pyridin-6-yl)pyridin-2-yl)acetamide]", "values": [{"measurement": "MIC", "result": "2 to 16", "unit": "µg/mL"}]}
{"compound": "CCNC(=O)Nc1nc2cc(-c3cc(C)oc(=O)c3)cnc2s1", "note": "[Example 77, 1-ethyl-3-(6-(6-methyl-2-oxo-2H-pyran-4-yl)thiazolo[5,4-b]pyridin-2-yl)urea]", "values": [{"measurement": "MIC", "result": "2 to 16", "unit": "µg/mL"}]}
{"compound": "CCNC(=O)Nc1nc2cc(-c3cc(C)n(C(C)c4ccc(C)nc4)c(=O)c3)c(F)cc2s1", "note": "(stereo not shown) [Example 78, 1-ethyl-3-(6-fluoro-5-{6-methyl-1-[1-(6-methyl-pyridin-3-yl)-ethyl]-2-oxo-1,2-dihydro-pyridin-4-yl}-benzothiazol-2-yl)-urea]", "values": [{"measurement": "MIC", "result": "0.25 to 1", "unit": "µg/mL"}]}
{"compound": "CCNC(=O)Nc1nc2cc(-c3ccn(Cc4ncccc4OC)c(=O)c3)c(F)cc2s1", "note": "[Example 79, 1-Ethyl-3-{6-fluoro-5-[1-(3-methoxy-pyridin-2-ylmethyl)-2-oxo-1,2-dihydro-pyridin-4-yl]-benzothiazol-2-yl}-urea]", "values": [{"measurement": "MIC", "result": "< 0.25", "unit": "µg/mL"}]}
{"compound": "tert-butyl 3-((4-(2-(3-ethylureido)-6-fluorobenzo[d]thiazol-5-yl)-5-yl)-2,2′-dioxo-2H-1,4′-bipyridin-1′(2′H)-yl)methyl)piperidine-1-carboxylate [Example 64]", "values": [{"measurement": "MICs against Enterococcus faecalis, Activity", "result": "B (MICs of 0.25-1 μg/ml)"}]}
